The compounds below were run against T1, human capsaicin receptor (Homo sapiens, UniProt Q8NER1) (assay: Calcium mobilization assay, determination of antagonist activity (Example 6)). Conditions: Table III; assay provided in Example 6; cells expressing human capsaicin receptor, capsaicin at EC50.
T1 construct: expressed in transfected cells
Type: cell-based
Procedure: A cDNA encoding full length human capsaicin receptor (SEQ ID NO:1, 2 or 3 of U.S. Pat. No. 6,482,611) is subcloned in the plasmid pBK-CMV (Stratagene, La Jolla, Calif.) for recombinant expression in mammalian cells.
Human embryonic kidney (HEK293) cells are transfected with the pBK-CMV expression construct encoding the full length human capsaicin receptor using standard methods. The transfected cells are selected over two weeks in media containing G418 (400 μg/ml) to obtain a pool of stably transfected cells. Independent clones are isolated from this pool by limiting dilution to obtain clonal stable cell lines for use in subsequent experiments.
Cells transfected with expression plasmids (as described in Example 4) and thereby expressing human capsaicin receptor are seeded and grown to 70-90% confluency in FALCON black-walled, clear-bottomed 96-well plates (#3904, BECTON-DICKINSON, Franklin Lakes, N.J.). The culture medium is emptied from the 96 well plates and FLUO-3 AM calcium sensitive dye (Molecular Probes, Eugene, Oreg.) is added to each well (dye solution: 1 mg FLUO-3 AM, 440 μL DMSO and 440 μl 20% pluronic acid in DMSO, diluted 1:250 in Krebs-Ringer HEPES (KRH) buffer (25 mM HEPES, […], 0.96 mM NaH2PO4, 1 mM MgSO4, 2 mM CaCl2, 5 mM glucose, 1 mM probenecid, pH 7.4), 50 μl diluted solution per well). Plates are covered with aluminum foil and incubated at 37° C. for 1-2 hours in an environment containing 5% CO2. After the incubation, the dye is emptied from the plates, and the cells are washed once with KRH buffer, and resuspended in KRH buffer.
To measure the ability of a test compound to agonize or antagonize a calcium mobilization response in cells expressing capsaicin receptors to capsaicin or other vanilloid agonist, the EC50 of the agonist capsaicin is first determined. An additional 20 μl of KRH buffer and 1 μl DMSO is added to each well of cells, prepared as described above. 100 μl capsaicin in KRH buffer is automatically transferred by the FLIPR instrument to each well. Capsaicin-induced calcium mobilization is monitored using either FLUOROSKAN ASCENT (Labsystems; Franklin, Mass.) or FLIPR (fluorometric imaging plate reader system; Molecular Devices, Sunnyvale, Calif.) instruments. Data obtained between 30 and 60 seconds after agonist application are used to generate an 8-point concentration response curve, with final capsaicin concentrations of 1 nM to 3 μM. KALEIDAGRAPH software (Synergy Software, Reading, Pa.) is used to fit the data to the equation: […]
Test compounds are dissolved in DMSO, diluted in 20 μl KRH buffer so that the final concentration of test compounds in the assay well is between […] and 5 μM, and added to cells prepared as described above. The 96 well plates containing prepared cells and test compounds are incubated in the dark at room temperature for 0.5 to 6 hours. It is important that the incubation not continue beyond 6 hours. Just prior to determining the fluorescence response, 100 μl capsaicin in KRH buffer at twice the EC50 concentration determined as described above is automatically added by the FLIPR instrument to each well of the 96 well plate for a final sample volume of 200 μl and a final capsaicin concentration equal to the EC50. The final concentration of test compounds in the assay wells is between 1 μM and 5 μM. […] The concentration of antagonist required to provide a 50% decrease, relative to the response observed in the presence of capsaicin and without antagonist, is the IC50 for the antagonist, and is preferably below 1 micromolar, 100 nanomolar, 10 nanomolar or 1 nanomolar.

T1 sequence (Q8NER1 whole entry): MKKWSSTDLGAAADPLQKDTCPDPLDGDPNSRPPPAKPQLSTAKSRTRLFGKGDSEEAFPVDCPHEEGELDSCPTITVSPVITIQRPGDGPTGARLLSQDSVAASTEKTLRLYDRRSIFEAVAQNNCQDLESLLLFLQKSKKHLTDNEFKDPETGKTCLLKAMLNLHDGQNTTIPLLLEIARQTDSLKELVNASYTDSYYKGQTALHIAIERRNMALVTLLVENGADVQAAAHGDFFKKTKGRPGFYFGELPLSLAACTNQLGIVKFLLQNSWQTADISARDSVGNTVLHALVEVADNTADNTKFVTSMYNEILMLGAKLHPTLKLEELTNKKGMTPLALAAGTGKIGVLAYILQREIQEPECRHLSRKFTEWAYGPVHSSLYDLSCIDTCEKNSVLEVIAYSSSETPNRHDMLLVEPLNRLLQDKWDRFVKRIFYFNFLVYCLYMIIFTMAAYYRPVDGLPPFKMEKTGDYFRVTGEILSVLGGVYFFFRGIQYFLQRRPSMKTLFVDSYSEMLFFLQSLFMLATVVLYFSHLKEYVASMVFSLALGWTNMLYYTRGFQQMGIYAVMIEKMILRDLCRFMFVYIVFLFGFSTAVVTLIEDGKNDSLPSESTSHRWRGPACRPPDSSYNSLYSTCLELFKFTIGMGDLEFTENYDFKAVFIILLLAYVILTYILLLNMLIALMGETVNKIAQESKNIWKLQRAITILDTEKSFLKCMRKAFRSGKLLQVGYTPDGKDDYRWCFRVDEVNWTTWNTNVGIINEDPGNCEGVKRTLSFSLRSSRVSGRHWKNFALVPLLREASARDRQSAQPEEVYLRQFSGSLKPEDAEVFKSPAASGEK

Row | IC50 [µM] | Compound
1 | < 1 | FC(F)(F)CNc1cc(C(F)(F)F)c(-c2cnc3c(Nc4ccc(C(F)(F)F)cn4)ccnc3n2)nn1 [Compound 155, 3-{6-[(2,2,2-trifluoroethyl)amino]-4-(trifluoromethyl)pyridazin-3-yl}-N-[5-(trifluoromethyl)pyridin-2-yl]pyrido[2,3-b]pyrazin-8-amine]
2 | < 1 | FC(F)(F)c1ccc(Nc2ccnc3nc(-c4nnc(NC5CCCCC5)cc4C(F)(F)F)cnc23)nc1 [Compound 110, 3-[6-(cyclohexylamino)-4-(trifluoromethyl)pyridazin-3-yl]-N-[5-(trifluoromethyl)pyridin-2-yl]pyrido[2,3-b]pyrazin-8-amine]
3 | < 1 | FC(F)(F)c1ccc(Nc2ccnc3nc(-c4nnc(NC5CCC5)cc4C(F)(F)F)cnc23)nc1 [Compound 107, 3-[6-(cyclobutylamino)-4-(trifluoromethyl)pyridazin-3-yl]-N-[5-(trifluoromethyl)pyridin-2-yl]pyrido[2,3-b]pyrazin-8-amine]
4 | < 1 | CN1CCCC1CCNc1cc(C(F)(F)F)c(-c2cnc3c(Nc4ccc(C(F)(F)F)cn4)ccnc3n2)nn1 (centres unmarked) [Compound 72, 3-[6-{[2-(1-methylpyrrolidin-2-yl)ethyl]amino}-4-(trifluoromethyl)pyridazin-3-yl]-N-[5-(trifluoromethyl)pyridin-2-yl]pyrido[2,3-b]pyrazin-8-amine]
5 | < 1 | CCC(CO)Nc1cc(C(F)(F)F)c(-c2cnc3c(Nc4ccc(C(F)(F)F)cn4)ccnc3n2)nn1 (centres unmarked) [Compound 118, 2-{[5-(trifluoromethyl)-6-(8-{[5-(trifluoromethyl)pyridin-2-yl]amino}pyrido[2,3-b]pyrazin-3-yl)pyridazin-3-yl]amino}butan-1-ol]
6 | < 1 | CN(C)CCCOc1cc(C(F)(F)F)c(-c2cnc3c(Nc4ccc(C(F)(F)F)cn4)ccnc3n2)nn1 [Compound 64, 3-{6-[3-(dimethylamino)propoxy]-4-(trifluoromethyl)pyridazin-3-yl}-N-[5-(trifluoromethyl)pyridin-2-yl]pyrido[2,3-b]pyrazin-8-amine]
7 | < 1 | CCCCNc1cc(C(F)(F)F)c(-c2cnc3c(Nc4ccc(C(F)(F)F)cn4)ccnc3n2)nn1 [Compound 104, 3-[6-(butylamino)-4-(trifluoromethyl)pyridazin-3-yl]-N-[5-(trifluoromethyl)pyridin-2-yl]pyrido[2,3-b]pyrazin-8-amine]
8 | < 1 | CCN(CCO)c1cc(C(F)(F)F)c(-c2cnc3c(Nc4ccc(C(F)(F)F)cn4)ccnc3n2)nn1 [Compound 194]
9 | < 1 | CNc1cc(C(F)(F)F)c(-c2cnc3c(Nc4ccc(C(F)(F)F)cn4)ccnc3n2)nn1 [Compound 100, 3-[6-(methylamino)-4-(trifluoromethyl)pyridazin-3-yl]-N-[5-(trifluoromethyl)pyridin-2-yl]pyrido[2,3-b]pyrazin-8-amine]
10 | < 1 | C#CCN(C)c1cc(C(F)(F)F)c(-c2cnc3c(Nc4ccc(C(F)(F)F)cn4)ccnc3n2)nn1 [Compound 125, 3-{6-[methyl(prop-2-yn-1-yl)amino]-4-(trifluoromethyl)pyridazin-3-yl}-N-[5-(trifluoromethyl)pyridin-2-yl]pyrido[2,3-b]pyrazin-8-amine]
11 | < 1 | CC(CN(C)C)Nc1cc(C(F)(F)F)c(-c2cnc3c(Nc4ccc(C(F)(F)F)cn4)ccnc3n2)nn1 (centres unmarked) [Compound 82, N1,N1-dimethyl-N2-[5-(trifluoromethyl)-6-(8-{[5-(trifluoromethyl)pyridin-2-yl]amino}pyrido[2,3-b]pyrazin-3-yl)pyridazin-3-yl]propane-1,2-diamine]
12 | < 1 | CCC(COC)Nc1cc(C(F)(F)F)c(-c2cnc3c(Nc4ccc(C(F)(F)F)cn4)ccnc3n2)nn1 (centres unmarked) [Compound 166, 3-[6-{[1-(methoxymethyl)propyl]amino}-4-(trifluoromethyl)pyridazin-3-yl]-N-[5-(trifluoromethyl)pyridin-2-yl]pyrido[2,3-b]pyrazin-8-amine]
13 | < 1 | CCCOCCNc1cc(C(F)(F)F)c(-c2cnc3c(Nc4ccc(C(F)(F)F)cn4)ccnc3n2)nn1 [Compound 52, 3-[6-[(2-propoxyethyl)amino]-4-(trifluoromethyl)pyridazin-3-yl]-N-[5-(trifluoromethyl)pyridin-2-yl]pyrido[2,3-b]pyrazin-8-amine]
14 | < 1 | NC(=O)CNc1cc(C(F)(F)F)c(-c2cnc3c(Nc4ccc(C(F)(F)F)cn4)ccnc3n2)nn1 [Compound 113, N2-[5-(trifluoromethyl)-6-(8-{[5-(trifluoromethyl)pyridin-2-yl]amino}pyrido[2,3-b]pyrazin-3-yl)pyridazin-3-yl]glycinamide]
15 | < 1 | CN(CC#N)c1cc(C(F)(F)F)c(-c2cnc3c(Nc4ccc(C(F)(F)F)cn4)ccnc3n2)nn1 [Compound 124, {methyl[5-(trifluoromethyl)-6-(8-{[5-(trifluoromethyl)pyridin-2-yl]amino}pyrido-[2,3-b]pyrazin-3-yl)pyridazin-3-yl]amino}acetonitrile]
16 | < 1 | FC(F)(F)c1ccc(Nc2ccnc3nc(-c4nnc(N5CCCCCC5)cc4C(F)(F)F)cnc23)nc1 [Compound 178, 3-[6-azepan-1-yl-4-(trifluoromethyl)pyridazin-3-yl]-N-[5-(trifluoromethyl)pyridin-2-yl]pyrido[2,3-b]pyrazin-8-amine]
17 | < 1 | FC(F)(F)c1ccc(Nc2ccnc3nc(-c4nnc(NCCCCN5CCCC5)cc4C(F)(F)F)cnc23)nc1 [Compound 84, 3-{6-[(4-pyrrolidin-1-ylbutyl)amino]-4-(trifluoromethyl)pyridazin-3-yl}-N-[5-(trifluoromethyl)pyridin-2-yl]pyrido[2,3-b]pyrazin-8-amine]
18 | < 1 | CCN(C)c1cc(C(F)(F)F)c(-c2cnc3c(Nc4ccc(C(F)(F)F)cn4)ccnc3n2)nn1 [Compound 180, 3-{6-[ethyl(methyl)amino]-4-(trifluoromethyl)pyridazin-3-yl}-N-[5-(trifluoromethyl)pyridin-2-yl]pyrido[2,3-b]pyrazin-8-amine]
19 | < 1 | OC1CCN(c2cc(C(F)(F)F)c(-c3cnc4c(Nc5ccc(C(F)(F)F)cn5)ccnc4n3)nn2)CC1 [Compound 196, 1-[5-(trifluoromethyl)-6-(8-{[5-(trifluoromethyl)pyridin-2-yl]amino}pyrido[2,3-b]pyrazin-3-yl)pyridazin-3-yl]piperidin-4-ol]
20 | < 1 | FC(F)(F)c1ccnnc1-c1cnc2c(Nc3cnc4ccccc4n3)ccnc2n1 [Compound 45, N-2-quinoxalinyl-3-[4-(trifluoromethyl)-3-pyridazinyl]pyrido[2,3-b]pyrazin-8-amine]
21 | < 1 | CN1CCN(c2cc(C(F)(F)F)c(-c3cnc4c(Nc5ccc(C(F)(F)F)cn5)ccnc4n3)nn2)CC1 [Compound 145, 3-[6-(4-methylpiperazin-1-yl)-4-(trifluoromethyl)pyridazin-3-yl]-N-[5-(trifluoromethyl)pyridin-2-yl]pyrido[2,3-b]pyrazin-8-amine]
22 | < 1 | COc1nc(Nc2ccnc3nc(-c4nnccc4C(F)(F)F)cnc23)ccc1C(F)(F)F [Compound 49, N-[6-methoxy-5-(trifluoromethyl)pyridin-2-yl]-3-[4-(trifluoromethyl)pyridazin-3-yl]pyrido[2,3-b]pyrazin-8-amine]
23 | < 1 | OCCOc1cc(C(F)(F)F)c(-c2cnc3c(Nc4ccc(C(F)(F)F)cn4)ccnc3n2)nn1 [Compound 63, 2-{[5-(trifluoromethyl)-6-(8-{[5-(trifluoromethyl)pyridin-2-yl]amino}pyrido[2,3-b]pyrazin-3-yl)pyridazin-3-yl]oxy}ethanol]

— patent US20080175794A1, “Substituted Pyridazinyl- and Pyrimidinyl-Quinolin-4-Ylamine Analogues” (NEUROGEN CORPORATION, priority 2005, published 2008)
